Source: US4645770A, “Agent for treating Parkinson's disease or Parkinsonism” (priority 1985, dated 1987)
Counter-ions that a name gives are not always drawn.

Columns and labels:
[1] = tested on: presynaptic dopaminergic receptors; details: Anden et al., 1983; cited from earlier work
[2] = tested on: denervated post-synaptic DA receptors; assay: Contralateral rotation on the 6-OHDA model; type: in vivo, rat
[3] = tested on: MPTP Parkinsonism syndrome; assay: MPTP model of Parkinson's disease in Rhesus monkeys; type: in vivo
Description: The irreversible neurological syndrome triggered in monkeys and humans by MPTP largely resembles idiopathic Parkinson's disease in its clinical, pathological, biochemical and pharmacological features (Markey et al., Nature 311, 464 (1984)). The reason for this strong similarity is the fact that MPTP selectively destroys the small group of dopaminergic nerve cells in the substantia nigra of the brain which are also destroyed by degenerative processes in naturally occurring Parkinson's disease. There is even some discussion to the effect that idiopathic Parkinson's disease might be caused by MPTP or a similar chemical compound formed in the organism (Snyder, S. H., Nature 311, 514 (1984)). Possibly as a result of the specific metabolism of MPTP, the clinical features of the MPTP Parkinsonism syndrome have been thusfar only been detected in monkeys and man. The MPTP model produced in Rhesus monkeys is therefore exceptionally suitable for testing the effect of anti-Parkinson's drugs.
Voluntary movements of the hindquarters and extremities could not generally be initiated even by extreme and painful stimulation.
After the intramuscular administration of B-HT 920 (50-100 mcg/kg) the first voluntary movements occurred at a time interval of 5 to 10 minutes, followed in the next 10 to 30 minutes by a gradual, extensive normalization of motor function. The animals were capable of taking food. They maintained thier normal posture within their cages and also behaved normally in terms of vigilance and species-specific behavior. […] There was no sedation.

[4] = tested on: "naive" rat; assay: Spontaneous motor activity: ambulatory movements (exploratory activity), Opto-Varimex 3; type: in vivo; details: for Contacts broken (exploratory activity/5 min.): first 5 minutes after injection
Method: (§1) (A) Spontaneous motor activity in the "naive" rat
(§2) Two aspects of motor function were recorded with a known "Opto-Varimex 3":
(a) "ambulatory" movements in the first 5 minutes after s.c. injection of B-HT 920; this phase of locomotor function corresponds to the so-called "exploratory activity" of rats in a new environment;
(§3) The following doses of B-HT 920 were tested: 0.02, 0.2, 2.0 mg/kg s.c.. As a comparison apomorphine was tested in a dosage of 0.1 mg/kg s.c.

[5] = tested on: postsynaptic dopamine (DA) receptors; assay: Ipsilateral rotation in the ibotenic acid model; type: in vivo, rat
[6] = tested on: "naive" rat; assay: Spontaneous motor activity: non-ambulatory (stereotypical) movements, Opto-Varimex 3; type: in vivo; details: for Stereotypical movements (Movements/15 min.): from 55 minutes after injection
Method: as §1, §2
(b) "non-ambulatory" movements which are made up essentially of stereotypical movements, which began to be recorded 45 minutes after the animals had been put into the recording cage (and 55 minutes after s.c. injection).
as §3

[7] = Oral acute toxicity (LD50) in the mouse; details: in vivo

Compound: C=CCN1CCc2nc(N)sc2CC1 [B-HT 920, 2-amino-6-allyl-5,6,7,8-tetrahydro-4H-thiazole-[4,5-d]azepine dihydrochloride]
- Agonist effect on presynaptic dopaminergic receptors [1]: agonist with a selective effect on presynaptic dopaminergic receptors
- Contralateral rotations up to 6 hours ([2]; 0.02 mg/kg): 168 Contralateral rotations
- Contralateral rotations up to 6 hours ([2]; 0.05 mg/kg): 582 Contralateral rotations
- Contralateral rotations up to 6 hours ([2]; 0.5 mg/kg): 1282 Contralateral rotations
- Contralateral rotations up to 6 hours ([2]; 1.0 mg/kg): 1442 Contralateral rotations
- Activity on denervated receptors ([2]; by contrast with its weak effect on normal DA receptors): exceptionally strong activity on denervated receptors
- Behavior of the animals after administration ([3]; 50-100 mcg/kg intramuscular): The animals were capable of taking food. They maintained thier normal posture within their cages and also behaved normally in terms of vigilance and species-specific behavior
- Residual symptoms recorded ([3]; 50-100 mcg/kg intramuscular): an occasional, transient, slight resting tremor and a reduction in brute strength
- Sedation ([3]; 50-100 mcg/kg intramuscular): no sedation
- Time after which the effect diminished ([3]; 50-100 mcg/kg intramuscular): about 3 hours
- Blood supply to the skin ([3]; 50-100 mcg/kg intramuscular, compared with the state before administration): appeared to be increased
- Effect of fresh administration on clinical pathological symptoms ([3]; after reversion to the Parkinson's symptoms): improvement or substantial removal of the clinical pathological symptoms
- Side effects ([3]; at the dosages used): No side effects were discovered
- Contacts broken (exploratory activity/5 min.) ([4]; 0.02 mg/kg s.c.): 380 /5 min.
- Contacts broken (exploratory activity/5 min.) ([4]; 0.2 mg/kg s.c.): 150 /5 min.
- Inhibitory effect on the exploratory activity ([4]; 0.2 mg/kg, compared with 0.1 mg/kg of apomorphine): almost maximum
- Contacts broken (exploratory activity/5 min.) ([4]; 2.0 mg/kg s.c.): 130 /5 min.
- Ipsilateral rotations/duration of activity ([5]; 0.2 mg/kg s.c., up to 6 hours): 37 Ipsilateral rotations/duration of activity
- Ipsilateral rotations/duration of activity ([5]; 0.5 mg/kg s.c., up to 6 hours): 54 Ipsilateral rotations/duration of activity
- Ipsilateral rotations/duration of activity ([5]; 1.0 mg/kg s.c., up to 6 hours): 102 Ipsilateral rotations/duration of activity
- Ipsilateral rotations/duration of activity ([5]; 2.0 mg/kg s.c., up to 6 hours): 96 Ipsilateral rotations/duration of activity
- Activity on the normally sensitive DA receptor (in words) ([5]; compared with apomorphine): only a weak activity
- Post-synaptic DA-agonistic activity relative to apomorphine on the normally sensitive DA receptor ([5]; fraction of the activity of apomorphine): about one eighth
- Stereotypical movements (Movements/15 min.) ([6]; 0.2 mg/kg s.c.): 370 Movements/15 min.
- Stereotypical movements (Movements/15 min.) ([6]; 2.0 mg/kg s.c.): 310 Movements/15 min.
- Stereotypical movements (Movements/15 min.) ([6]; 4.0 mg/kg s.c.): 340 Movements/15 min.
- Increase in the number of stereotypical movements ([6]; any of the doses tested): did not lead to an increase in the number of stereotypical movements

Compound: C=CCN1CCc2nc(N)sc2CC1 [Compound A, 2-amino-6-allyl-5,6,7,8-tetrahydro-4H-thiazolo[4,5-d]azepine]
- LD50 [7]: 455 mg/kg

Compound: CN1CCc2cccc3c2[C@H]1Cc1ccc(O)c(O)c1-3 [apomorphine, reference compound]
- Contralateral rotations up to 6 hours ([2]; 0.05 mg/kg): 557 Contralateral rotations
- Contacts broken (exploratory activity/5 min.) ([4]; 0.1 mg/kg s.c.): 150 /5 min.
- Ipsilateral rotations/duration of activity ([5]; 0.5 mg/kg s.c., up to 3 hours): 265 Ipsilateral rotations/duration of activity
- Ipsilateral rotations/duration of activity ([5]; 1.0 mg/kg s.c., up to 3 hours): 436 Ipsilateral rotations/duration of activity
- Ipsilateral rotations/duration of activity ([5]; 10.0 mg/kg s.c., up to 3 hours): 880 Ipsilateral rotations/duration of activity
- Stereotypical movements (Movements/15 min.) ([6]; 4.0 mg/kg s.c.): 650 Movements/15 min.
